# Measurements as given in US20260216127A1, “COMBINATIONS OF A UROTHILIN AND A KETONE BODY” (Amazentis SA, priority 2022, published 2026).
# Read-outs that look alike come from different tables or passages of the source.
# How the values were obtained:
# [1] = system: Interleukin 6 (IL-6) secretion in C2C12 cells; experiment: IL-6 secretion (ELISA) of differentiated C2C12 cells exposed to pro-inflammatory cytokine mix (cytomix); type: cell-based
# Description: C2C12 Myoblasts, purchased from the American Type Culture Collection (ATCC) (ref. CRL-1772), were seeded at 8000 cells per well in a 96 well plate (Greiner, Kremsmünster, Austria) using a DMEM Glutamax 4.5 g D-glucose (Gibco, ref 31966021) supplemented with foetal bovine serum (FBS) 10% (PanBiotech, ref P190902), 1% PenStrep (Biowest) and 1% HEPES (Biowest). Cells were then differentiated for 6 days using a differentiation medium (DMEM Glutamax 4.5 g D-glucose (Gibco, ref 31966021), 2% Horse serum (Thermofisher, ref 160501229) 1% PenStrep and 1% HEPES). All the media were sterilized with a 0.45 μm filter unit (VWR). […] The medium was collected and an ELISA for Interleukin-6 were performed following the instruction provided by the supplier (Proteintech ref. KE10007). Finally, the absorbance at a wavelength of 450 nm was measured using a microplate plate reader (Fluostar Optima, BMG Labtech).
# [2] = system: inflammation in certain cell-based models; conditions: cited from earlier work
SMILES,"impact on IL-6 secretion ([1]; BHB 5 μM alone, cytomix) [%]","reduction of IL-6 secretion ([1]; higher dose of BHB alone, cytomix) [%]",concentration at which the anti-inflammatory effect of BHB was observed ([2]; PMC6402511) [µM],concentration at which the anti-inflammatory effect of BHB was observed ([2]; PMID: 25686106),"reduction of IL-6 secretion ([1]; UA 6.25 μM alone, 24 h pre-treatment then cytomix 24 h) [%]","reduction of IL-6 secretion ([1]; UA 12.5 μM alone, 24 h pre-treatment then cytomix 24 h) [%]"
"CC(O)CC(=O)[O-].[Na+] (racemic) [BHB, DL-β-Hydroxybutyric acid sodium salt]",−0.007,32,> 250,above 2 mM,–,–
O=c1oc2cc(O)ccc2c2ccc(O)cc12 [Urolithin A],–,–,–,–,25,60
